Where two headings read alike, the source gives them in different places.
Legend:
[1] = system: COX-2 in stimulated DRGs; type: cell-based, mouse; conditions: read-out: IC50 for inhibition of 2-AG oxidation in DRGs
[2] = system: COX-2 in stimulated DRGs; type: cell-based, mouse; conditions: read-out: IC50 for inhibition of AEA oxidation in DRGs
[3] = system: COX-2 in stimulated DRGs; type: cell-based, mouse
[4] = system: stimulated DRGs; assay: Substrate levels; type: cell-based, mouse
[5] = system: FAAH; conditions: read-out: IC50, FAAH inhibition; in vitro; ref [29]; cited from earlier work
[6] = target: T1, mCOX-2 (Mus musculus, UniProt Q05769); assay: Inhibition of COX-2 oxygenation of AA, PG formation by LC-MS-MS; type: biochemical
T1 sequence (Q05769 18-604): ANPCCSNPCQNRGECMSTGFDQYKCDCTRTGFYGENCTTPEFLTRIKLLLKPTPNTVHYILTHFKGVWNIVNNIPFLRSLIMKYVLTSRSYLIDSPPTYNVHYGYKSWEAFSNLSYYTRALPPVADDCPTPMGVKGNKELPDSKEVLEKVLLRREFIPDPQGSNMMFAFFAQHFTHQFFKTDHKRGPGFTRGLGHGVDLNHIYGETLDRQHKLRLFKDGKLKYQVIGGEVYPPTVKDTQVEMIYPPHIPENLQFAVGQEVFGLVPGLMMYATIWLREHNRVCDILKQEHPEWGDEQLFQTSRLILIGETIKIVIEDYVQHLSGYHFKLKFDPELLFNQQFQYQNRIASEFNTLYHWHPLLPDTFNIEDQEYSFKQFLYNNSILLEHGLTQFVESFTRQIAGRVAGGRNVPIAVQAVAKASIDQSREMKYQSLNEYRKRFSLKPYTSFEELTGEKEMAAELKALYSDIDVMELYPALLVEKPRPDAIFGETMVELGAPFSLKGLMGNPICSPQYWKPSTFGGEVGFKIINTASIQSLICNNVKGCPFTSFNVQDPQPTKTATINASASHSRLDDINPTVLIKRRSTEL

With `C[C@@H](C(=O)O)c1ccc(-c2ccccc2)c(F)c1` [(R)-flurbiprofen] the IC50 [1] was 5.8 ± 2.9 µM, the IC50 [2] was 6 ± 2.7 µM and the “Inhibition of the synthesis of PGs in DRGs” value [3] was “did not inhibit”. For the same compound, the “Amount of 2-AG in cell extracts” value [4] was “increased”, the “Amount of AA in cell extracts” value [4] was “did not increase” and the “Amount of AEA in cell extracts” value [4] was “increased”. The IC50 [5] was > 1000 µM.
For `CC(C)Cc1ccc([C@@H](C)C(=O)O)cc1` [(R)-ibuprofen], the “Amount of 2-AG in cell extracts” value [4] was “increased”, the “Amount of AA in cell extracts” value [4] was “did not increase” and the “Amount of AEA in cell extracts” value [4] was “increased”.
With `COc1ccc2cc([C@@H](C)C(=O)O)ccc2c1` [(R)-naproxen] the “Inhibition of AA oxidation by COX-2” value ([6]; at either 5 or 50 μM substrate concentrations) was “did not inhibit”, the “Inhibition of the synthesis of PGs in DRGs” value ([3]; stimulated DRGs, at concentrations that inhibited PG-G and PG-EA synthesis) was “did not inhibit” and the “Amount of 2-AG in cell extracts” value [4] was “increased”. The “Amount of AA in cell extracts” value [4] was “did not increase” and the “Amount of AEA in cell extracts” value [4] was “increased”.
In the case of `Cc1ccc(Nc2c(F)cccc2Cl)c(CC(=O)O)c1` [Lumiracoxib], the “IC50, inhibition of COX-2 oxygenation of AA (result in words)” value ([6]; 50 μM AA, 15 min pre-incubation, 30 s reaction, LC-MS-MS) is reported as “no inhib”.

— article PMC3298755 (Nature Chemical Biology, 2011)
